Measured values published in the supplement of paper PMC10307832.

Experiments:
Test in all cases: relative viability (nuclei count vs DMSO), 5 days (fraction); higher = more cells survive
[1] = compound: N#CC1(c2ccc(NC(=O)c3cccnc3NCc3ccncc3)cc2)CCCC1 [Apatinib]
Procedure, shortened: (§1)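 Five library-drug doses spaced by √10 were pinned onto vehicle-anchored 1536-well plates of lung cancer cell lines that had been kept overnight at 37 °C. Cells went 5 days without medium change, then were fixed, permeabilised and Hoechst-stained together, imaged at 4× and counted by MetaXpress. Viability is the ratio of treated-well to vehicle-well nuclei, taken as a median over plates. Plates required control CV below 25% and at least one doubling.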

[2] = compound: CN(C)C(=N)NC(=N)N [Metformin]
Procedure, shortened: as §1

[3] = compound: CN(C)C(=N)NC(=N)N [Metformin] + Cc1nc(NC(=O)N2CCC[C@H]2C(N)=O)sc1-c1ccnc(C(C)(C)C(F)(F)F)c1 [Alpelisib] (partner 2 µM)
Procedure, shortened: (§2)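 Lung cancer cell lines in 1536-well plates were dosed by pin tool the day after seeding, either with one drug alone or with a fixed anchor-drug dose plus five library-drug doses (not always all listed) in √10 steps. After 5 days, cells were fixed and their nuclei stained in one step (final 0.05% Triton X-100, 1% formaldehyde, 1 ug/ml Hoechst), then counted on 4× images. Relative viability is the nuclei count in treated wells divided by that in vehicle wells. Values are medians of duplicate plates.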

[4] = compound: N#CC1(c2ccc(NC(=O)c3cccnc3NCc3ccncc3)cc2)CCCC1 [Apatinib] + CC(C)C[C@H](NC(=O)[C@H](Cc1ccccc1)NC(=O)c1cnccn1)B(O)O [Bortezomib] (partner 0.002 µM)
Procedure, shortened: as §2

Row | Cell Line | relative viability ([1]; 0.08 µM) | relative viability ([1]; 0.253 µM) | relative viability ([1]; 0.8 µM) | relative viability ([1]; 2.53 µM) | relative viability ([1]; 8 µM) | relative viability ([2]; 10 µM) | relative viability ([2]; 31.62 µM) | relative viability ([2]; 100 µM) | relative viability ([2]; 316.23 µM) | relative viability ([2]; 1000 µM) | relative viability ([3]; first compound 10 µM) | relative viability ([3]; first compound 31.62 µM) | relative viability ([3]; first compound 100 µM) | relative viability ([3]; first compound 316.23 µM) | relative viability ([3]; first compound 1000 µM) | relative viability ([4]; first compound 0.08 µM) | relative viability ([4]; first compound 0.253 µM) | relative viability ([4]; first compound 0.8 µM) | relative viability ([4]; first compound 2.53 µM) | relative viability ([4]; first compound 8 µM)
1 | NCI-H2126 | 0.975 | 0.904 | 0.969 | 0.918 | 1.02 | 0.905 | 0.992 | 0.981 | 0.932 | 1.03 | 0.695 | 0.752 | 0.755 | 0.716 | 0.755 | 1.11 | 1.01 | 1.08 | 1.06 | 1.06
2 | CAL-12T | 1.08 | 0.99 | 1 | 0.91 | 0.828 | 1.02 | 1.19 | 0.938 | 1.02 | 0.968 |  | 1.21 | 1.08 | 0.812 | 0.907 | 1.11 | 0.908 | 1.06 | 0.819 | 1.09
3 | NCI-H358 | 0.987 | 1.03 | 0.962 | 0.961 | 0.877 | 0.939 | 1.09 | 1.03 | 0.98 | 1.09 | 1.1 | 0.911 | 1.07 | 0.915 | 1.25 |  |  |  |  | 
4 | HCC-44 | 0.959 | 0.941 | 0.95 | 0.913 | 0.922 | 0.938 | 0.997 | 1.02 | 0.909 | 0.956 | 0.782 | 0.825 | 0.931 | 0.711 | 0.813 | 1.01 | 0.951 | 0.894 | 0.753 | 0.856
5 | EKVX | 0.869 | 0.904 | 0.984 | 0.873 | 0.877 | 0.756 | 0.95 | 1.07 | 0.922 | 1.03 | 0.656 | 0.934 | 0.88 | 0.812 | 0.835 | 0.941 | 1.21 | 0.967 | 0.98 | 1.01
6 | NCI-H1734 | 1.18 | 0.987 | 0.991 | 0.909 | 0.845 | 1.01 | 1.03 | 1.04 | 1.01 | 1.02 | 0.697 | 0.718 | 0.715 | 0.681 | 0.827 | 0.98 | 1.11 | 0.947 | 0.764 | 0.759
7 | NCI-H1395 | 0.914 | 1.11 | 0.964 | 0.685 | 0.844 | 1.06 | 1.3 | 0.96 | 0.956 | 0.521 | 0.835 | 1.02 | 1.1 | 0.424 | 0.342 |  |  |  |  | 
8 | SW 900 | 1 | 0.87 | 0.858 | 0.615 | 0.825 | 1.08 | 1.15 | 0.779 | 0.933 | 1.07 |  |  |  |  |  |  |  |  |  | 
9 | NCI-H1975 | 0.97 | 0.981 | 0.91 | 0.844 | 0.943 | 1.06 | 1.16 | 1.09 | 1.12 | 1.21 | 0.766 | 0.839 | 0.862 | 0.707 | 0.861 | 0.466 | 0.417 | 0.314 | 0.323 | 0.388
10 | Calu-6 | 1.01 | 1.01 | 0.908 | 0.868 | 0.799 | 0.899 | 0.961 | 0.953 | 0.931 | 0.964 | 0.889 | 0.84 | 0.836 | 0.73 | 0.879 | 0.969 | 1.12 | 0.96 | 0.789 | 0.814
11 | EBC-1 | 1 | 1.06 | 0.914 | 0.858 | 0.738 | 1.18 | 1.19 | 1.07 | 0.918 | 1.04 | 0.866 | 0.989 | 0.925 | 0.941 | 0.947 | 0.577 | 0.782 | 0.605 | 0.395 | 0.359
12 | NCI-H1792 | 0.884 | 0.883 | 0.887 | 0.863 | 0.725 | 0.901 | 0.969 | 1.06 | 1.01 | 1.05 |  | 0.798 | 0.979 | 0.691 | 0.869 | 0.917 | 1.05 | 0.957 | 0.906 | 0.968
13 | NCI-H596 | 0.939 | 1.03 | 0.94 | 0.911 | 0.882 | 1.17 | 1.14 | 1.02 | 1.06 | 1.09 | 0.627 | 0.652 | 0.655 | 0.547 | 0.577 | 1.2 | 1 | 1.17 | 0.929 | 1.04
14 | NCI-H1650 | 0.904 | 1.01 | 0.86 | 0.832 | 0.824 | 1.09 | 0.865 | 1.17 | 1.03 | 0.931 |  |  |  |  |  | 0.19 | 0.219 | 0.198 | 0.184 | 0.188
15 | NCI-H1944 | 0.948 | 0.921 | 0.886 | 0.791 | 0.921 | 0.845 | 1.1 | 0.954 | 0.882 | 1.04 | 0.936 | 1.01 | 1.06 | 0.886 | 0.973 |  |  |  |  | 
16 | HCC-827 | 1.02 | 1.02 | 0.96 | 0.976 | 1.02 |  | 0.988 | 0.993 | 0.967 | 0.997 |  | 0.822 | 0.896 | 0.837 | 0.782 | 0.977 | 0.907 | 1.07 | 1.05 | 1.09

Row | Cell Line | relative viability ([1]; 0.08 µM) | relative viability ([1]; 0.253 µM) | relative viability ([1]; 0.8 µM) | relative viability ([1]; 2.53 µM) | relative viability ([1]; 8 µM) | relative viability ([2]; 10 µM) | relative viability ([2]; 31.62 µM) | relative viability ([2]; 100 µM) | relative viability ([2]; 316.23 µM) | relative viability ([2]; 1000 µM) | relative viability ([3]; first compound 10 µM) | relative viability ([3]; first compound 31.62 µM) | relative viability ([3]; first compound 100 µM) | relative viability ([3]; first compound 316.23 µM) | relative viability ([3]; first compound 1000 µM) | relative viability ([4]; first compound 0.08 µM) | relative viability ([4]; first compound 0.253 µM) | relative viability ([4]; first compound 0.8 µM) | relative viability ([4]; first compound 2.53 µM) | relative viability ([4]; first compound 8 µM)
17 | NCI-H441 | 1.08 | 1.05 | 0.837 | 0.864 | 0.743 |  | 0.761 | 0.985 | 0.667 | 0.944 | 0.566 |  | 0.765 |  | 0.572 | 0.615 | 0.481 | 0.592 | 0.322 | 0.217
18 | LCLC-103H | 0.998 | 0.956 | 0.956 | 0.912 | 0.942 | 0.848 | 1.01 | 1.07 | 1.01 | 1.02 | 1.05 | 1 | 1.14 | 1.03 | 1 | 1.16 | 1.03 | 0.998 | 0.992 | 1.09
19 | HARA | 1.33 | 0.93 | 1 | 0.742 | 1.04 | 1.12 | 1.26 | 1.13 | 1.06 | 1.13 | 0.915 | 0.902 | 1.06 | 0.89 | 0.964 | 1.14 | 1.07 | 1.14 | 0.992 | 1.18
20 | 201T | 0.983 | 0.961 | 0.982 | 0.871 | 0.894 |  | 1.08 | 1.06 | 0.934 | 1.01 |  | 0.987 | 0.989 | 0.955 | 0.985 | 1.07 | 1.07 | 1.1 | 1.11 | 1.08
21 | NCI-H2009 | 1.06 | 0.979 | 0.968 | 0.762 | 0.618 | 0.889 | 1.1 | 1.04 | 1.02 | 1.03 | 1.25 | 1.16 | 1.13 | 1.17 | 1.1 | 1.09 | 0.955 | 0.954 | 0.714 | 0.574
22 | HCC-78 | 0.967 | 0.847 | 1.01 | 0.803 | 0.858 | 0.857 | 1.03 | 1.27 | 0.968 | 1.14 | 0.408 | 0.537 | 0.57 | 0.469 | 0.598 | 0.539 | 0.525 | 0.618 | 0.505 | 0.476
23 | LK-2 | 0.978 | 0.976 | 0.973 | 0.856 | 0.634 | 1.22 | 1.28 | 1.22 | 1.07 | 1.32 | 1.56 | 1.53 | 1.63 | 1.36 | 1.32 |  |  |  |  | 
24 | ChaGo-K-1 | 1.01 | 1.09 | 0.932 | 0.938 | 0.989 | 0.951 | 1.11 | 1.05 | 0.896 | 0.987 |  |  |  |  |  |  | 1.19 | 0.847 | 0.857 | 1.03
25 | NCI-H1648 | 1.18 | 0.735 | 0.722 | 0.591 | 0.498 | 0.937 | 1.11 | 1.28 | 1.08 | 1.16 |  |  |  |  |  |  |  |  |  | 
26 | NCI-H1623 | 1 | 0.924 | 0.966 | 0.946 | 0.593 | 0.985 | 0.982 | 1.08 | 0.909 | 1.03 |  |  |  |  |  |  |  |  |  | 
27 | NCI-H522 | 1 | 1.04 | 1.1 | 0.916 | 0.928 | 1.24 | 1.09 | 1.05 | 0.942 | 1.11 |  |  |  |  |  |  |  |  |  | 
28 | NCI-H2170 | 0.981 | 1.01 | 0.909 | 0.89 | 0.886 | 0.787 | 0.882 | 0.907 | 0.957 | 1.01 | 0.748 | 0.792 | 0.819 | 0.806 | 0.805 |  |  |  |  | 
29 | SK-MES-1 | 1.02 | 1.06 | 0.978 | 0.933 | 0.884 | 0.9 | 0.875 | 0.952 | 0.826 | 0.884 | 0.814 | 0.802 | 0.732 | 0.822 | 0.909 |  |  |  |  | 
30 | NCI-H2342 | 0.899 | 0.909 | 0.998 | 0.929 | 0.941 | 0.665 | 1.03 | 1.04 | 0.935 | 1.07 |  |  |  |  |  |  |  |  |  | 
31 | A549 | 1.02 | 1.04 | 1.02 | 0.903 | 0.909 | 0.896 | 0.976 | 0.923 | 0.849 | 0.996 | 0.766 | 0.879 | 0.739 | 0.672 | 0.611 |  |  |  |  | 
32 | NCI-H1793 | 1.02 | 1.01 | 0.857 | 0.772 | 0.749 | 0.943 | 1.01 | 0.993 | 0.977 | 1.25 | 1.17 | 1.03 | 0.953 | 0.761 | 0.919 |  |  |  |  | 
